Results taken from patent US10039806B2, “Methods and compositions for treating antiprogestin-resistant cancers” (Fundación Sales, priority 2011, dated 2018).

Columns and labels:
[1] = test system: epithelial cells from breast cancer samples; assay: Primary cultures from breast cancer samples: cell number or Ki67; type: cell-based, human
From the text: The samples were obtained at surgery from patients diagnosed with breast cancer at the […]. de Martinez Hospital from General Pacheco and at the […] Hospital of Buenos Aires after signing the informed consent (n=70; median age 55 year). Protocols were approved by the Institutional Ethical Review Board. Whenever possible, one piece of the sample was kept in dry ice immediately after surgery and another piece was kept in culture medium and transported to IBYME. Tumor samples were processed by mechanical and enzymatic degradation and epithelial cells were purified by differential sedimentation techniques (7). The epithelial cells were cultured with DMEM/F12 medium plus 10% fetal calf serum (FCS). Once the cultures were overcrowded, they were subcultured and equal numbers of cells were seeded in 24 well plates. […] OH-Tamoxifen was also used as a control. After one week of treatment, the cells were trypsinized and the total number of cells in each well was counted or alternatively, they were fixed to evaluate the Ki67 (proliferation marker) expression by IHC. In several cases in which there were carcinoma associated fibroblasts intermingled with the epithelial cells, a double staining of Ki67 and cytokeratin (CK) was performed to consider the proliferating cells among the total number of epithelial cells (CK+). An inhibitory index was calculated for each tumor.

C4-HI cells = assay: (3H)-thymidine uptake, primary cultures of purified epithelial cells; type: cell-based, mouse; conditions: 48 h, with MPA; P<0.001
Method: (§1) Epithelial cells and carcinoma-associated fibroblasts were separated by differential sedimentation and plated with 10% FCS. Carcinoma-associated fibroblasts were allowed to attach for 0.5 h and the epithelial cells for 24-48 h. The medium was replaced by fresh medium with 10% FCS; thereafter, it was changed every 2-3 days.
(§2) (3H)-thymidine-uptake was used as an indirect method to evaluate cell proliferation. In brief, cells were seeded into 96-well microplates. After attachment (24 h), the cells were incubated for 24 h with 1% steroid-stripped FCS and then for 48 h with the experimental solutions to be tested in 1% chFCS. Fifty percent of the medium was replaced with fresh medium every 24 h. The cells were incubated with 0.4 μCi of 3H-thymidine (specific activity: 20 Ci/mmol) for 24 h, trypsinized, and harvested in a cell harvester. In experiments in which 5azadC was used, the experiments were carried out using proliferating cells (presence of 10% FCS) to guarantee the effect of the demethylating agent. Three different experiments were made using octuplicates, and the means and standard deviations of one representative experiment of the other three are shown. The results are expressed as the proliferation index (cpm […] experimental group/cpm control; mean±SEM).

C4-HIR cells = assay: as above; type: cell-based, mouse; conditions: 48 h, with MPA; P<0.001
Method: as §1, §2

[2] = test system: C4-HI or C4-HIR epithelial cells with carcinoma-associated fibroblasts; assay: (3H)-thymidine uptake, co-cultures with carcinoma-associated fibroblasts; type: cell-based, mouse; conditions: own or other tumor's fibroblasts
Method: Trypsinized cells were resuspended and equal amounts of epithelial cells and carcinoma-associated fibroblasts were seeded with 10% FCS that was replaced after attachment by 1% steroid-stripped FCS. […] The same amount of epithelial cells or carcinoma-associated fibroblasts or double the amount of purified cells was used for comparison.
as §2

IBH-6-pSG5 tumors = assay: Xenograft in nude mice; type: in vivo, human; conditions: MFP 10 mg/kg/day; p<0.001
From the text: (§3) BH-6 cell line was developed from an invasive ductal breast carcinoma (1). IBH-6 cells express basal levels of hormone receptors, they are tumorigenic and in vivo express higher levels of PRB than PRA (2). Cells were transfected with human PRB, PRA (pSG5-PRB, pSG5-PRA, kindly provided by K. Horwitz) or with the empty vector (pSG5), together with a plasmid encoding the neomycin resistance gene pIRES-N1(3), using Lipofectamine transfection reagent (Invitrogen) following the manufacturer's instructions. Transfected and selected cells were cultured in medium supplemented with […] G418 (neomycin analogue, GIBCO). The expression of PRB and PRA were analyzed by western blot and immunofluorescence (using Ab7 and Ab6 antibodies from Thermo Fisher). T47D-YA or YB were kindly provided by K. Horwitz and cultured as previously described (4).
Transfected and selected cells were grown up to confluence, washed with PBS, detached with 0.25% trypsin, centrifuged at 1000 rpm for 10 min and resuspended in a final concentration of 10^6 (IBH-6) or 5×10^6 (T47D) cells per 100 μl of culture medium. The cells were sc inoculated into the right flank of nu/nu (IBH-6) or NOD/LtSz-scid/IL-2Rgamma null (T47D-YA or -YB cells) female mice. […]

T47D-YA tumors = assay: Xenograft in NOD/LtSz-scid/IL-2Rgamma null mice; type: in vivo, human
From the text: as §3
(§4) Transfected and selected cells were grown up to confluence, washed with PBS, detached with 0.25% trypsin, centrifuged at 1000 rpm for 10 min and resuspended in a final concentration of 10^6 (IBH-6) or 5×10^6 (T47D) cells per 100 μl of culture medium. The cells were sc inoculated into the right flank of nu/nu (IBH-6) or NOD/LtSz-scid/IL-2Rgamma null (T47D-YA or -YB cells) female mice. Only in experiments involving T47D cells E2 silastic pellets (0.5 mg) were implanted sc into the back of the animals one week prior tumor cell inoculation and 70 μl of Matrigel were mixed with the cell suspension at the moment of injection. MFP (6 mg) silastic pellets were sc implanted when tumors reached 20-40 mm^2. For T47D cells, experiments were repeated inoculating both cell types (T47D-YA or -YB) simultaneously in the left or right flank of the mouse, respectively.
(§5) Sections of formalin-fixed, paraffin-embedded tissue were stained with PR (C-19), or Ki67 (Dako, M7248) antibodies using the avidin-biotin-peroxidase complex technique (Vectastain Elite ABC kit; Vector), as described previously (6). Positive cells were counted in 10 high-power fields (HPFs) of each section, using 1000× magnification, and expressed as the mean±SEM of the ratio between the number of positive events and the total cell number.

T47D-YB tumors = assay: Xenograft in NOD/LtSz-scid/IL-2Rgamma null mice; type: in vivo, human
From the text: as §3, §4, §5

C4-HI = assay: MPA breast cancer model, responsive tumor in vivo; design: species or system mouse
59-2-HI tumor = assay: MPA breast cancer model, responsive tumor in vivo; conditions: mouse
HI-responsive tumors = conditions: daily doses of 10 mg/kg; cited from earlier work
[3] = test system: BT-474 and T47D xenografts; conditions: 25 mg; mice treated with E2 followed by MPA; cited from earlier work
breast cancer = conditions: cited from earlier work
[4] = 28 postmenopausal PR+ patients, 200 mg/day

## CC#C[C@]1(O)CC[C@H]2[C@@H]3CCC4=CC(=O)CCC4=C3[C@@H](c3ccc(N(C)C)cc3)C[C@@]21C [RU-486, mifepristone]
[1]; 10^-8 M, one week, 3 out of 8 cases, p<0.05
  number of cells as compared to the controls: significant decrease in the number of cells
[1]; ER+ PR+ invasive ductal carcinoma, high PR-A/PR-B, 10^-8 M
  cell proliferation, case #137: decrease in cell proliferation
[1]; samples with high levels of PR-A expression
  effect on cell proliferation: inhibitory effect
[1]; three PR negative tumors
  in vitro responsiveness: no in vitro responsiveness
C4-HI cells
  MPA-induced proliferative effect: abolished
C4-HIR cells
  MPA-induced proliferative effect: abolished
[2]
  co-culture cell proliferation: inhibited
IBH-6-pSG5 tumors
  in vivo growth: stimulated
T47D-YA tumors; MFP pellet, E2 pellet 0.5 mg, p<0.05
  tumor size: reduced their size
T47D-YA tumors; in vivo
  mitotic figures and apoptosis: Few mitotic figures and a high degree of apoptosis
  nuclear MYC or CCND1 expression (IHC): decreased levels of nuclear MYC or CCND1 expression
  tumor morphology: morphological signs of tumor regression
T47D-YB tumors; MFP pellet, E2 pellet 0.5 mg
  tumor size: no significant differences
T47D-YB tumors; in vivo
  nuclear MYC or CCND1 staining (IHC): intense nuclear staining
C4-HI; mouse, in vivo
  differentiation (histology): increase in differentiation
C4-HI; tumors with higher PR-A than PR-B, FIG. 15
  tumor growth: completely inhibited
59-2-HI tumor
  tumor regression (histology): the tumor regresses
HI-responsive tumors
  tumor regression: regress
[3]
  growth of xenografts: prevent the growth
Breast cancer; 22 patients, TAM-resistant metastases, 200 mg/day, following 3 months of therapy
  response rate: 18%
Breast cancer; 28 postmenopausal PR+ patients, 200 mg/day, more than 8 weeks
  side effects: lethargy: 68%
Breast cancer; [4]
  partial response: 3 patients
  side effects: anorexia: 39%
  side effects: hot flashes: 50%
  side effects: skin rash: 32%
  side effects: vomiting: 29%
Breast cancer; eleven patients with metastases, 200-400 mg daily p.o.
  clinical response: objective response in one patient, six patients showed temporal stabilization, and four patients had progressive disease
